This is an account of results in patent publication US11304907B2, “Pharmaceutical compositions containing a DGAT1 inhibitor” (Novartis AG, priority 2010, dated 2022).

Structures can show the parent of a compound that is named as a salt.

A short description of data set [1]: Physicochemical properties of the drug substance. From the text:
However, the compound of formula (I), or a pharmaceutically acceptable salt thereof, in particular the sodium salt thereof, is a drug substance which is difficult to formulate due to its physicochemical properties. […] It is also plate like, very fluffy, and sticky in nature.

Data set [2] can be described thus: Disintegrant compatibility / stress storage. The data set is classed as physicochemical. As to conditions: due to the presence of residual formaldehyde. Here is the method: It can be seen from the above table that core tablets formulated with Cross linked polyvinyl pyrollidone (PVP-XL) show a slower release compared to the Sodium Starch Glycollate (SSG), and Croscarmellose Sodium (Ac-Di-Sol) based formulations. […] Formulations containing Croscarmellose Sodium (Ac-Di-Sol) were also found to turn to yellow when prepared and exposed to 50° C. dry as well as 50° C./75% […] humidity for 4 weeks.

Regarding `O=C(O)C[C@H]1CC[C@H](c2ccc(-c3ccc(Nc4ccc(C(F)(F)F)nc4)cn3)cc2)CC1` [compound of formula (II), trans-(4-{4-[5-(6-Trifluoromethyl-pyridin-3-ylamino)-pyridin-2-yl]-phenyl}-cyclohexyl)-acetic acid, sodium salt], the moisture uptake entry in data set [1] (at 95% relative humidity) is on record as “high moisture uptake”. Moreover, in data set [1] (drug substance, sodium salt), the hygroscopicity entry is on record as “hygroscopic” and the solubility entry is listed as “poorly soluble”. The “compatibility with Cross linked polyvinyl pyrollidone (PVP-XL)” value in data set [2] is on record as “incompatible”.
